Data as given in the supplement of paper PMC10627819.

How the values were obtained:
S. pneumoniae D39V [1] = assay: fitness (endpoint OD595 vs no drug) (fraction); higher = more growth
How it was run: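 Fitness was defined as the optical density at the transition into stationary phase relative to the robust mean of no-drug control wells. Values were capped at 1. Cultures were started at OD595 0.01 in 384-well plates (30 µl, or 55 µl for S. pneumoniae) in TSB, LB Lennox or CY at 37 °C. OD595 was recorded every 30 min over 14 h, with the first reading subtracted as background.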

S. aureus Newman = assay: Bliss interaction score (quartile over a dose matrix) (fitness difference); higher = more antagonism (negative = synergy)
How it was run: (§1)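 The Bliss score was calculated by subtracting the expected fitness, the product of single-drug values, from the observed fitness. OD595 at entry into stationary phase, over the plate's robust no-drug mean and capped at 1, served as the fitness readout. Single-drug values were inferred from combination data, and scores are summarised by quartiles across technical, biological and donor/recipient replicates.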

S. aureus DSM 20231 = assay: as above
How it was run: as §1

S. pneumoniae D39V [2] = assay: as above
How it was run: as §1

B. subtilis 168 = assay: as above
How it was run: as §1
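For Bliss interaction score (quartile over a dose matrix) in this document: first quartile when negative (synergy) and third quartile when positive (antagonism).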

CC(=O)NC[C@H]1CN(c2ccc(N3CCOCC3)c(F)c2)C(=O)O1 [Linezolid] + O=C1CN(/N=C/c2ccc([N+](=O)[O-])o2)C(=O)N1 [Nitrofurantoin]
fitness, S. pneumoniae D39V [1]
Conditions | first compound 0.105 µg/mL | first compound 0.2 µg/mL | first compound 0.21 µg/mL | first compound 0.4 µg/mL | first compound 0.42 µg/mL | first compound 0.8 µg/mL
partner 1.285 µg/mL | – | 0.79 | – | 0.695 | – | 0.291
partner 2 µg/mL | 0.784 | – | 0.688 | – | 0.522 | –
partner 2.57 µg/mL | – | 0.791 | – | 0.683 | – | 0.259
partner 4 µg/mL | 0.795 | – | 0.705 | – | 0.488 | –
partner 8 µg/mL | 0.618 | – | 0.346 | – | 0.151 | –

S. pneumoniae D39V [1], partner 5.14 µg/mL, one replicate
Conditions | fitness
first compound 0.2 µg/mL | 0.735
first compound 0.4 µg/mL | 0.534
first compound 0.8 µg/mL | 0.239

Conditions | Bliss interaction score
B. subtilis 168 | -0.141
S. aureus DSM 20231 | -0.0317
S. aureus Newman | -0.0829
S. pneumoniae D39V [2] | -0.147

CO[C@H]1/C=C/O[C@@]2(C)Oc3c(C)c(O)c4c(O)c(c(/C=N/N5CCN(C)CC5)c(O)c4c3C2=O)NC(=O)/C(C)=C\C=C\[C@H](C)[C@H](O)[C@@H](C)[C@@H](O)[C@@H](C)[C@H](OC(C)=O)[C@@H]1C [Rifampicin] + CC1=C\[C@@H](O)CC(=O)Cc2nc(co2)C(=O)N2CCC=C2C(=O)O[C@H](C(C)C)[C@H](C)/C=C/C(=O)NC\C=C\1 [Virginiamycin M1]
S. pneumoniae D39V [1], one replicate
Conditions | fitness
first compound 0.025 µg/mL, partner 0.5 µg/mL | 0.876
first compound 0.025 µg/mL, partner 1 µg/mL | 0.905
first compound 0.025 µg/mL, partner 2 µg/mL | 0.822
first compound 0.05 µg/mL, partner 0.15 µg/mL | ≥ 1
first compound 0.05 µg/mL, partner 0.3 µg/mL | 0.993
first compound 0.1 µg/mL, partner 0.15 µg/mL | 0.891
first compound 0.1 µg/mL, partner 0.3 µg/mL | 0.884
first compound 0.2 µg/mL, partner 0.15 µg/mL | 0.267
first compound 0.2 µg/mL, partner 0.3 µg/mL | 0.203

S. pneumoniae D39V [1], first compound 0.2 µg/mL
Conditions | fitness
partner 0.5 µg/mL | 0.194
partner 1 µg/mL | 0.0581
partner 2 µg/mL | 0.129

Conditions | Bliss interaction score
B. subtilis 168 | -0.0938
S. aureus DSM 20231 | 0.0924
S. aureus Newman | -0.0218
S. pneumoniae D39V [2] | 0.111

CO[C@H]1/C=C/O[C@@]2(C)Oc3c(C)c(O)c4c(O)c(c(/C=N/N5CCN(C)CC5)c(O)c4c3C2=O)NC(=O)/C(C)=C\C=C\[C@H](C)[C@H](O)[C@@H](C)[C@@H](O)[C@@H](C)[C@H](OC(C)=O)[C@@H]1C [Rifampicin] + CN(C)c1cc(NC(=O)CNC(C)(C)C)c(O)c2c1C[C@H]1C[C@H]3[C@H](N(C)C)C(O)=C(C(N)=O)C(=O)[C@@]3(O)C(O)=C1C2=O [Tigecycline]
S. pneumoniae D39V [1], first compound 0.025 µg/mL, one replicate
Conditions | fitness
partner 0.65 µg/mL | 0.86
partner 1.3 µg/mL | 0.808
partner 2.6 µg/mL | 0.839

S. pneumoniae D39V [1], first compound 0.2 µg/mL
Conditions | fitness
partner 0.65 µg/mL | 0.197
partner 1.3 µg/mL | 0.159
partner 2.6 µg/mL | 0.196

Conditions | Bliss interaction score
B. subtilis 168 | 0.0457
S. aureus DSM 20231 | 0.026
S. aureus Newman | -0.0189
S. pneumoniae D39V [2] | -0.0785

CO[C@H]1/C=C/O[C@@]2(C)Oc3c(C)c(O)c4c(O)c(c(/C=N/N5CCN(C)CC5)c(O)c4c3C2=O)NC(=O)/C(C)=C\C=C\[C@H](C)[C@H](O)[C@@H](C)[C@@H](O)[C@@H](C)[C@H](OC(C)=O)[C@@H]1C [Rifampicin] + CN(N=O)C(=O)N[C@@H](C=O)[C@@H](O)[C@H](O)[C@H](O)CO [Streptozotocin]
S. pneumoniae D39V [1], first compound 0.025 µg/mL, one replicate
Conditions | fitness
partner 1.2 µg/mL | 0.825
partner 2.4 µg/mL | 0.838
partner 4.8 µg/mL | 0.786

fitness, S. pneumoniae D39V [1]
Conditions | partner 1.2 µg/mL | partner 2.4 µg/mL | partner 4.8 µg/mL
first compound 0.05 µg/mL | 0.831 | 0.879 | 0.766
first compound 0.2 µg/mL | 0.0914 | 0.108 | 0

Conditions | Bliss interaction score
B. subtilis 168 | -0.0644
S. aureus DSM 20231 | 0.034
S. aureus Newman | -0.0244
S. pneumoniae D39V [2] | -0.0476

CO[C@H]1/C=C/O[C@@]2(C)Oc3c(C)c(O)c4c(O)c(c(/C=N/N5CCN(C)CC5)c(O)c4c3C2=O)NC(=O)/C(C)=C\C=C\[C@H](C)[C@H](O)[C@@H](C)[C@@H](O)[C@@H](C)[C@H](OC(C)=O)[C@@H]1C [Rifampicin] + CN[C@@H]1[C@H](O)[C@H](NC)[C@H]2O[C@@]3(O)C(=O)C[C@@H](C)O[C@H]3O[C@@H]2[C@H]1O [Spectinomycin]
fitness, S. pneumoniae D39V [1], one replicate
Conditions | partner 4 µg/mL | partner 8 µg/mL | partner 16 µg/mL
first compound 0.025 µg/mL | 0.848 | 0.716 | 0.282
first compound 0.2 µg/mL | – | – | 0

fitness, S. pneumoniae D39V [1]
Conditions | first compound 0.05 µg/mL | first compound 0.1 µg/mL | first compound 0.2 µg/mL
partner 4 µg/mL | 0.497 | 0.297 | 0.0634
partner 8 µg/mL | – | 0.202 | 0.069
partner 16 µg/mL | 0.23 | 0.204 | –

Conditions | Bliss interaction score
B. subtilis 168 | -0.0584
S. aureus DSM 20231 | -0.0309
S. aureus Newman | 0.0508
S. pneumoniae D39V [2] | -0.153
